Source: patent US20040014671A1, “Preventives or remedies for heart failure” (priority 2000, published 2004)
Where a SMILES comes first, the peptide text is derived from it. [ ]: non-standard residue; d: D form. dTrp(2-Me) = Cc1[nH]c2ccccc2c1C[C@@H](N)C(=O)O; d2Nal = N[C@H](Cc1ccc2ccccc2c1)C(=O)O

Key:
[1] = system: anesthetized open-chest rabbits; experiment: Cardiac function of anesthetized open-chest rabbit after intravenous administration; assay type: in vivo
Procedure: The effects of pralmorelin on cardiac function were evaluated by measuring various parameters [blood pressure, heart rate, systolic left ventricular pressure (LVPsys), and maximal positive dP/dt (+dP/dtmax) obtained by differentiating the waveform of left ventricular pressure (LVP)]. The value of the maximal positive dP/dt for the left ventricular pressure (+dP/dtmax) is particularly important to determine if the cardiotonic action is sufficient to treat acute heart failure.
Pralmorelin dihydrochloride (hereunder referred to as KP-102) (prepared by the method described in WO 9304081) was dissolved in distilled water for injection to prepare a 1.5 mg/mL solution.
Male NZW-strain rabbits (Kitayama Labes) weighing about 2 kg were used in the experiment. After arrival, the animals were allowed to eat a solid meal (Labo R Stock, Oriental Yeast Co., Ltd.) and drink water in a room at a temperature of 20±2° C. and at a humidity of 55±15% under 12-hr light/ dark cycles (from 7:00 to 19:00); the animals were kept under these conditions for at least 6 days before use.
Rabbits were anesthetized by administering 30 mg/kg of sodium pentobarbital into the auricular vein at a slow speed with attention to their breathing. The animals were then fixed in supine position and an endotracheal cannula was inserted. Under artificial respiration (tidal volume, 25 mL/breath; ventilation frequency, 45 breaths/min: SN-480-7 of Shinano Seisakusyo), the chest of each animal was opened by midline incision and the pericardium was incised to expose the heart. The left ventricular pressure (LVP) was measured with a pressure transducer (TP-300T, Nihon Kohden) and a pressure amplifier (AG-610G, Nihon Kohden) as a cannula with syringe was inserted from the cardiac apex into the left ventricle. The waveform of LVP was differentiated with a differentiator unit (ED-601, Nihon Kohden) to determine the maximal positive dP/dt(+dP/dtmax), which was used as an index for cardiac contractility. Blood pressure was measured with a pressure amplifier (AP-610G, Nihon Kohden) via a pressure transducer (TP-300T, Nihon Kohden) connected to a cannula inserted into the left femoral artery. Heart rate was measured with a cardiotachometer (AT-601G, Nihon Kohden) that was driven by counting the pulse waves of LVP. The parameters mentioned above were recorded on a recorder (TA-11, Gould). A cannula was inserted into the left femoral vein so as to assist in the administration of the test substance. The rectum temperature of each animal was controlled at 39° C. with a body temperature controller (TK-43, Asahi Denshi). The anesthetic was added as required but additional anesthetization should be avoided during the measurements.
After each parameter stabilized, distilled water (0.2 mL/kg) was administered over one minute with an infusion pump (FP-W-100, Toyo Sangyo K.K.) and observations were made for 5 minutes after the administration to see whether the vehicle would have no effect. About 5 minutes after the administration of distilled water, the test substance was administered with an infusion pump in a volume of 0.2 mL/kg over one minute according to the grouping method specified above. Each hemodynamic parameter was measured both before administration and 1, 3, 5, 10, 15, 20 and 25 minutes after administration and the percent changes from the basal values were calculated. In some animals, measurement was conducted until 40 minutes after the administration of the test substance.
The results were each expressed by mean ± standard deviation. Any difference between groups was tested by repeated measures ANOVA (analysis of variance); The significance level was set at 5%.

[2] = system: papillary muscle of guinea-pig; experiment: Myocardial contractility (developed tension) in isolated papillary muscle of guinea-pig; settings: for tension development (positive inotropic action) vs baseline: applied cumulatively 10, 30 and 100 μM, n=5, FIG. 1; for change in developed tension: isolated papillary muscle, 1 Hz stimulation
Procedure: The direct effect of pralmorelin on myocardial contractility was evaluated using the isolated cardiac muscle of guinea-pigs according to the standard method for evaluating myocardial contractility.
Male Hartley guinea-pigs (body weight, 301-350 g; Japan SLC) were purchased. The animals were accommodated to an environment at a temperature of 23±2° C. and a humidity of 55±15% under 12-hr light/dark cycles while they were allowed to eat and drink water ad libitum until they weighed 360-480 g. Each test substance was tested on a group of five animals.
The test substances were pralmorelin dihydrochloride (KP-102), representatives of growth hormone secretagogues such as hexarelin, ghrelin and ibutamorelin methanesulfonate (the last being hereunder referred to as MK-0677) (which were prepared by the method described in JP 6-263737 A (kokai)), as well as a recombinant human growth hormone (Sumitomo Pharmaceutical) and amrinone (Sigma) which is a known therapeutic of acute heart failure. KP-102, hexarelin and MK-0677 were dissolved in distilled water. Ghrelin was dissolved in physiological saline. Amrinone was first dissolved in dimethyl sulfoxide and then diluted with physiological saline. The growth hormone was dissolved in a dedicated solubilizer (0.3 w/v % metacresol and 3.9 w/v % D-mannitol). None of the test substance solutions should be added in an amount exceeding 1 w/v %. All reagents other than the test substances were guaranteed products of Nacalai Tesque.
The guinea-pigs were stunned with a blow to the back of their head; thereafter, the carotid artery was incised and the animals were exsanguinated to death. The chest was opened, the blood vessels in the upper part of the heart were cut and the heart was removed. The heart was immediately transferred into a Krebs-Henseleit (K-H) nutrient solution (NaCl, 118.0 mM; KCl, 4.7 mM; CaCl2. 2H2O, 1.0 mM; KH2PO4, 1.2 mM; MgSO4.7H2O, 1.2 mM; NaHCO3, 25.0 mM; glucose, 11.0 mM) that had been fully aerated with 95% O2-5% CO2. The heart was fixed on a rubber-lined Petri dish with needles such that its front face was seen. The ventricular wall of the upper right ventricle (toward the atrium) was excised transversely along the atrium, then excised longitudinally along the interventricular septum so that the ventricular wall was opened to expose the right ventricular papillary muscle. Subsequently, the entire surface of the left ventricle was cut open from the aorta (down) to the apex and the anterior wall of the left ventricle was opened wide, to both right and left, and fixed to expose the papillary muscle of the left ventricle. The tricupsid or mitral valve was cut off from the ventricle and the papillary muscle was cut off at the base to prepare a specimen of papillary muscle. The base of the specimen was fixed to field stimulating electrodes in an organ bath filled with 15 mL of the nutrient solution. The tendinous cord adhering to the valve was tied up with a thread and connected to an FD pickup (TB-612T, Nihon Kohden). A resting tension of 0.5 g was loaded and the papillary muscle was driven with an electric stimulator (SEN-3201, Nihon Kohden) at a frequency of 1 Hz by pulses of 20-ms duration and at a voltage intensity about 1.2 times the threshold. After an equilibration period of about 1 hr, KP-102, hexarelin and amrinone were each applied cumulatively up to amounts of 10, 30 and 100 μM. After examination of the changes in inotropic action due to the application of the test substances, 12.5 mM of CaCl2 was added and the maximum tension that was developed by each specimen was obtained. The developed tension was recorded with a multi-purpose preamplifier (RMP-6008, Nihon Kohden) and a recorder (WT-647G, Nihon Kohden).
Each result was expressed by mean ± standard error. […]

[3] = system: dogs with occluded anterior descending coronary artery; experiment: Cardiac function of dog with anterior descending coronary artery occlusion after intravenous administration; assay type: in vivo; settings: 100 μg/kg intravenously after occlusion
Procedure: Using a dog model of acute contractile dysfunction caused by occlusion of the anterior descending coronary artery, the inventors studied the cardiotonic action of pralmorelin.
The action of pralmorelin on the cardiac dysfunction deteriorated by occlusion of the coronary artery was evaluated by various hemodynamic parameters, cardiac output (CO), stroke volume (SV), maximal positive dP/dt of left ventricular pressure (+dP/dtmax), ejection fraction (EF), mean blood pressure (MBP), heart rate (HR), total peripheral resistance (TPR) and double product (RPP) as an index of myocardial oxygen consumption.
Pralmorelin dihydrochloride (hereunder referred to as KP-102) (prepared by the method described in WO 9304081) was dissolved in distilled water to prepare a 0.5 mg/mL solution.
In the experiment, adult beagles of either sex (weighing 9-11 kg) purchased from Nihon Nosan Kogyo K.K. (Kanagawa, Japan) were used. After arrival, the animals were allowed to eat a solid meal (CD-5, CLEA Japan, Inc. or Labo D Stock, Nark Corp.) and drink water in a room at a temperature of 20±2° C. and at a humidity of 55±15% under illumination for 12 hours a day (from 7:00 to 19:00); the animals were kept under these conditions for at least one week before use.
Anesthesia was introduced by intravenous administration of pentobarbital (30 mg/kg) and in order to maintain anesthesia, pentobarbital (5-6 mg/kg/hr) was injected continuously by means of an infusion pump (FP-W-100, Toyo Sangyo) through a polyethylene cannula retained in the right cephalic vein. The endotracheal cannula was inserted and the chest was opened at the left fourth intercostal space under artificial respiration in a tidal volume of 20 mL/kg at a rate of 18 breaths/min with an artificial respirator (SN-480-3 of Shinano Seisakusho). The left anterior descending coronary artery was carefully detached from the site of origin over a length of 1-2 cm and an occluding thread was passed through.
The chest was opened at the left fifth intercostal space and a 5-segment conductance catheter (CCS-108-DA, Unique Medical) was inserted from the cardiac apex so that all electrodes would be placed in the left ventricle. A catheter equipped with a 5 Fr microtip pressure transducer (pressure transducer catheter, Model MPC-500, MILLAR) was inserted into the left ventricle through the left carotid artery. The conductance catheter and the pressure transducer catheter inserted into the left ventricle were connected to a built-in amplifier in a ventricular volume-measuring instrument (Integral 3; VPR-1002, Unique Medical) and the changes in the left ventricular pressure (LVP) and the volume of the left ventricle were measured simultaneously. To determine the mean blood pressure (MBP), blood pressure was measured via a blood pressure amplifier (AP641G, Nihon Kohden) from the 5 Fr pressure transducer catheter inserted into the left femoral artery. Heart rate (HR) was measured with a cardiotachometer (AT-601G, Nihon Kohden) from the pulse waves of blood pressure.
The chest was opened again at the fourth intercostal space and in order to measure the cardiac output (CO(EMF)) (CO as determined by an electromagnetic blood flowmeter based method), a probe connected to an electromagnetic blood flowmeter (MFV-2100, Nihon Kohden) was fitted at the site of origin of the aorta. A spiral electrode was put in the ischemic region that occurred due to the occlusion of coronary artery and a surface electrocardiogram was recorded. A Doppler probe was fitted on the left anterior descending coronary artery and the blood flow was determined with a Doppler blood flowmeter (PD-20, Crystal Biotech). The anterior descending coronary artery was occluded with pulling up the occluding thread over a period of about 5 minutes. Complete occlusion of the blood vessel was confirmed by the change in the surface electrocardiogram and the disappearance of the Doppler sound. […]

[4] = 300 μg/kg intravenously over one minute, n=4

Compound: C[C@H](NC(=O)[C@@H](Cc1ccc2ccccc2c1)NC(=O)[C@@H](C)N)C(=O)N[C@@H](Cc1c[nH]c2ccccc12)C(=O)N[C@H](Cc1ccccc1)C(=O)N[C@@H](CCCCN)C(N)=O [KP-102, D-alanyl-3-(naphthalen-2-yl)-D-alanyl-L-alanyl-L-tryptophyl-D-phenylalanyl-L-lysinamide] (H-[dA][d2Nal]AW[dF]K-NH2)
- onset of cardiotonic action (LVPsys, +dP/dtmax) after administration ([1]; 300 μg/kg intravenously): beginning one minute after the administration
- overall effect on heart rate ([1]; 300 μg/kg intravenously): little affected
- time of peak of cardiotonic action after administration ([1]; 300 μg/kg intravenously): 5 to 10 min
- time until blood pressure baseline value practically restored ([1]; 300 μg/kg intravenously): ~25 min
- maximum increase in +dP/dtmax, of the baseline value [1, 4]: 22%
- maximum increase in LVPsys, of the baseline value [1, 4]: 13%
- heart rate drop from baseline ([1]; 300 μg/kg intravenously, 3 minutes after administration): 2%
- heart rate increase from baseline ([1]; 300 μg/kg intravenously, 15 minutes after administration): 1%
- heart rate increase from baseline ([1]; 300 μg/kg intravenously, 25 minutes after administration): 2%
- time until baseline values (LVPsys, +dP/dtmax) restored ([1]; 300 μg/kg intravenously, one case with extended monitoring): ≤ 40 min
- mean blood pressure change vs control group ([1]; 300 μg/kg intravenously, p<0.05): significant rise of blood pressure
- tension development (positive inotropic action) vs baseline [2]: significant effect over the baseline value
- change in LVEDP [3]: Neither of the control and KP-102 groups showed changes
- change in LVPsys [3]: Neither of the control and KP-102 groups showed changes
- change in double product (RPP), index of myocardial oxygen consumption [3]: Neither group experienced a change in RPP
- change in heart rate (HR) [3]: Neither of MBP and HR changed
- change in mean blood pressure (MBP) [3]: Neither of MBP and HR changed
- change in −dP/dtmax vs control group [3]: no significant change
- increase in stroke volume (SV) from baseline before administration ([3]; 5 minutes after administration): 5%
- maximal increase in ejection fraction (EF) ([3]; 10 minutes): 10%
- increase in +dP/dtmax from baseline before administration ([3]; 10 minutes after administration): 7%
- maximum increase in cardiac output (CO) from baseline before administration ([3]; 10 minutes after administration, n=5): 7%
- change in total peripheral resistance (TPR) ([3]; significant vs control): TPR dropped following the administration

Compound: CC(C)(N)C(=O)N[C@H](COCc1ccccc1)C(=O)N1CCC2(CC1)CN(S(C)(=O)=O)c1ccccc12 [MK-0677, ibutamorelin methanesulfonate]
- change in developed tension ([2]; 100 μM): no changes in the developed tension

Compound: Nc1cc(-c2ccncc2)c[nH]c1=O [amrinone]
- tension development (positive inotropic action) vs baseline [2]: increased in a concentration-dependent manner

Compound: Cc1[nH]c2ccccc2c1C[C@@H](NC(=O)[C@@H](N)Cc1cnc[nH]1)C(=O)N[C@@H](C)C(=O)N[C@@H](Cc1c[nH]c2ccccc12)C(=O)N[C@H](Cc1ccccc1)C(=O)N[C@@H](CCCCN)C(N)=O [hexarelin] (H-H[dTrp(2-Me)]AW[dF]K-NH2)
- tension development (positive inotropic action) vs baseline [2]: very weak and by no means significant over the baseline value

Compound: ghrelin
- change in developed tension ([2]; 1 μM): no changes in the developed tension

Compound: recombinant human growth hormone: recombinant human growth hormone (Sumitomo Pharmaceutical)
- change in developed tension ([2]; 0.2 IU/mL): no changes in the developed tension
